Experimental data: article PMC12307932, “Convergent evolution of distinct D-ribulose utilisation pathways in attaching and effacing pathogens” (Nature Communications, 2025)
Like-named read-outs stand apart in the source and are kept apart here.

Molecular target: T1, AauA (Escherichia coli, UniProt Q8X6A6)
T1 construct: gene ECs_0374
Assay: isothermal titration calorimetry
Assay type: binding

T1 sequence (Q8X6A6 29-328 limits assumed): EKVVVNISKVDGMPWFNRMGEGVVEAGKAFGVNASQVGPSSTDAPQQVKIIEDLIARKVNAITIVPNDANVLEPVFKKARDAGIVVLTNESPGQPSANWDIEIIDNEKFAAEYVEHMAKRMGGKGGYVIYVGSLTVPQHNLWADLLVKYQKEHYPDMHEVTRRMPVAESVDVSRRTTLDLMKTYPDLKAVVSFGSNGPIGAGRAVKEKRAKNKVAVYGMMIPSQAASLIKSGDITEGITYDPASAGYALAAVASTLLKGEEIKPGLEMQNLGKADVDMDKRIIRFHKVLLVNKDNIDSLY

Structure (SMILES) | Kd | Kd (50 mM HEPES, 150 mM NaCl, pH 7.0, 25 °C, 70 µM AauA, single-site model)
O=C(CO)[C@H](O)[C@H](O)CO [D-ribulose] | 1.98 ± 0.3 µM | 
OC1OC[C@H](O)[C@H](O)[C@H]1O (some centres unmarked) [ʟ-arabinose] |  | 598 ± 132 µM
